Among the test systems are SK-MEL-2; SK-OV-3; SNB-75; A498; PC-3; A549; HCT-15; MDA-MB-435; HCC 2998; HOP-92; OVCAR-8; NCI/ADR-RES; UO-31; SF-268; 786-0; TK-10; U-251; RPMI-8226; SN12C; SR.
Common to all, as to assay: NCI tumour cell line growth inhibition, 48 h

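Compound exposure: 48 hours, 5 concentrations, 96-well plates. GI50: concentration for 50% inhibition of growth.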 Calls of active or inactive are those of the source. Rule as the data show it: active = GI50 up to about 1.1 µM and inactive = higher. Peptide text beside a SMILES is read from it. * marks the point of attachment. Boc = CC(C)(C)OC(=O)*; OtBu = CC(C)(C)O* Bounds are passed on as bounds.

On to `c1ccc(C2(c3cc4ccccc4[nH]3)OCCO2)nc1`, for which the GI50 with SK-MEL-2, with SK-OV-3, in the test on SNB-75, in the test on A498, in the test with PC-3 and in the test on A549 was > 100 µM (inactive) each time. Further, the GI50 is greater than 100 µM in the test with HCT-15; > 100 µM (inactive) in the test on MDA-MB-435; > 100 µM (inactive) with HCC 2998; > 100 µM (inactive) in the test with HOP-92; > 100 µM (inactive) in the test on OVCAR-8; > 100 µM (inactive) in the test on NCI/ADR-RES. Besides, the GI50 in the test on UO-31, in the test on SF-268, in the test with 786-0, in the test on TK-10 and in the test with U-251 was > 100 µM (inactive) throughout.
`COC(=O)[C@]1(c2cc3ccccc3[nH]2)CC2CN(C(=O)OCc3ccccc3)C1CC2=O` (stereo not given in full): the GI50 in the test with SK-MEL-2 was 18.2 µM (inactive); with SK-OV-3 it was 33.4 µM (inactive); with SNB-75, 16.5 µM (inactive); in the test with A498 it was 20 µM (inactive); with PC-3, 17.1 µM (inactive); in the test on RPMI-8226, 17.5 µM (inactive). Moreover, the GI50 is 23.3 µM (inactive) in the test with A549; 27.5 µM in the test with HCT-15; 30.1 µM (inactive) in the test with MDA-MB-435; 17.4 µM (inactive) in the test with SN12C; 35 µM (inactive) in the test with HCC 2998; 20.4 µM (inactive) in the test with HOP-92. The GI50 with OVCAR-8 is 26.7 µM (inactive); in the test with NCI/ADR-RES, 29.3 µM (inactive); in the test on UO-31 it was 21.3 µM (inactive); with SF-268, 27.4 µM (inactive); in the test on 786-0, 23.8 µM (inactive); with TK-10, 53.5 µM (inactive). For the same compound, the GI50 with U-251 is 15.8 µM (inactive).
With `O=C(N/C(=C\NC1=NCCS1)C(=O)N1CSC[C@@H]1C(=O)O)c1ccccc1`, the GI50 in the test with SK-OV-3, in the test on SNB-75, in the test with A498, in the test on PC-3, in the test on RPMI-8226 and in the test on A549 was > 100 µM (inactive) in each case. In addition, the GI50 with HCT-15 was greater than 100 µM; in the test with MDA-MB-435 it was > 100 µM (inactive); with SN12C it was > 100 µM (inactive); in the test on HCC 2998, > 100 µM (inactive); with HOP-92, > 100 µM (inactive); with OVCAR-8, > 100 µM (inactive). Besides, the GI50 in the test on NCI/ADR-RES is > 100 µM (inactive); in the test with UO-31, > 100 µM (inactive); with SF-268 it was > 100 µM (inactive); in the test on 786-0, 77.8 µM (inactive); with TK-10 it was > 100 µM (inactive); in the test on U-251 it was > 100 µM (inactive).
Turning to `COC1CC(C)C(OC)C2=CC(=O)C=C(NC(=O)/C(C)=C/C=C\C(C)C(OC(N)=O)/C(C)=C\C(C)C1OC)C2=O` (stereo not given), the GI50 in the test with SK-MEL-2 was 0.525 µM (active); in the test on SK-OV-3 it was 0.357 µM (active); in the test with SNB-75, 0.762 µM (active); in the test on A498, 11.7 µM (inactive); in the test on PC-3, 11.5 µM (inactive); with RPMI-8226 it was 0.313 µM (active). In addition, the GI50 in the test on A549 was 2.9 µM (inactive); in the test with SR, 0.0682 µM (active); in the test with HCT-15, 1.33 µM; with MDA-MB-435, 0.0721 µM (active); with SN12C, 0.296 µM (active); in the test on HCC 2998 it was 0.665 µM (active). For the same compound, the GI50 in the test with HOP-92 was 0.313 µM (active); with OVCAR-8, 1.67 µM (inactive); in the test with UO-31, 4.83 µM (inactive); with SF-268, 1.31 µM (inactive); in the test on 786-0, 0.902 µM (active); with TK-10, 2.09 µM (inactive). Moreover, in the test with U-251, the GI50 was 0.37 µM (active).
For the compound `[N-]=[N+]=NC1OC(=O)C(Cl)=C1N=P(c1ccccc1)(c1ccccc1)c1ccccc1` (stereo not given), the GI50 in the test with SK-MEL-2 was > 10 µM (inactive); with SK-OV-3, > 10 µM (inactive); in the test with SNB-75, 6.84 µM (inactive); in the test with A498 it was > 10 µM (inactive); in the test on PC-3, 2.95 µM (inactive); in the test with RPMI-8226 it was 3.34 µM (inactive). Besides, the GI50 is > 10 µM (inactive) with A549; 7.35 µM in the test on HCT-15; 8.17 µM (inactive) with MDA-MB-435; > 10 µM (inactive) with SN12C; > 10 µM (inactive) with HCC 2998; > 10 µM (inactive) with OVCAR-8. Also, the GI50 in the test with NCI/ADR-RES was 5.51 µM (inactive); in the test with UO-31 it was > 10 µM (inactive); with SF-268, > 10 µM (inactive); in the test with 786-0, > 10 µM (inactive); in the test with TK-10, > 10 µM (inactive); in the test on U-251, > 10 µM (inactive).
As to `c1ccc(CCN2CCCCCC2)nc1`, the GI50 in the test with SK-MEL-2, in the test on SK-OV-3, in the test on A498, in the test on PC-3, with RPMI-8226 and in the test on A549 was > 100 µM (inactive) in each case. For the same compound, the GI50 is greater than 100 µM in the test with HCT-15; > 100 µM (inactive) in the test on MDA-MB-435; > 100 µM (inactive) with SN12C; > 100 µM (inactive) with HOP-92; > 100 µM (inactive) in the test on OVCAR-8; > 100 µM (inactive) with NCI/ADR-RES. Besides, the GI50 in the test on UO-31, with SF-268, in the test on 786-0, with TK-10 and in the test with U-251 was > 100 µM (inactive) throughout.
On to `CN(C)CCNc1nc2ccccc2c2c1CCCC2`, for which the GI50 is 17.2 µM (inactive) in the test on SK-MEL-2; 18.2 µM (inactive) with SK-OV-3; 15.7 µM (inactive) with SNB-75; 17.2 µM (inactive) in the test with A498; 26.5 µM (inactive) in the test on PC-3; 20.5 µM (inactive) in the test with RPMI-8226. Also, the GI50 in the test with A549 is 32.6 µM (inactive); in the test on HCT-15 it was 32 µM; with MDA-MB-435, 18.2 µM (inactive); in the test on SN12C it was 22.9 µM (inactive); in the test with HCC 2998, 12.5 µM (inactive); in the test on HOP-92, 12.3 µM (inactive). Moreover, the GI50 with OVCAR-8 was 31.8 µM (inactive); in the test with NCI/ADR-RES, 25.1 µM (inactive); in the test on UO-31, 11.2 µM (inactive); in the test with SF-268, 32.1 µM (inactive); in the test on 786-0, 16.4 µM (inactive); in the test with TK-10 it was 14.5 µM (inactive). Also, in the test with U-251, the GI50 is 17.3 µM (inactive).
On to `C=C(C)C1=CCC[C@]2(C1)N=C(OC)[C@@H](C(C)C)N=C2OC`, for which the GI50 in the test with SK-MEL-2 was > 100 µM (inactive); with SK-OV-3 it was > 100 µM (inactive); with SNB-75, 51.2 µM (inactive); with A498 it was > 100 µM (inactive); in the test with PC-3, > 100 µM (inactive); in the test on RPMI-8226, 16.3 µM (inactive). The GI50 with A549 was > 100 µM (inactive); with HCT-15 it was greater than 100 µM; with MDA-MB-435 it was 40.1 µM (inactive); in the test on SN12C, > 100 µM (inactive); in the test on HCC 2998, > 100 µM (inactive); in the test on HOP-92, 56 µM (inactive). In addition, the GI50 with OVCAR-8 was > 100 µM (inactive); in the test with NCI/ADR-RES, > 100 µM (inactive); with UO-31 it was 96.4 µM (inactive); in the test on SF-268 it was > 100 µM (inactive); in the test on 786-0, > 100 µM (inactive); in the test on TK-10 it was > 100 µM (inactive). Also, the GI50 in the test on U-251 was > 100 µM (inactive).
As to `CC(C)(C)OC(=O)CC(NC(=O)OC(C)(C)C)C(=O)NC(Cc1ccccc1)C(N)=O` (stereo not given) (Boc-Asp(OtBu)-Phe-NH2; configuration not given here), the GI50 with SK-MEL-2, in the test on SK-OV-3, with SNB-75, in the test on A498, in the test on PC-3 and in the test on RPMI-8226 was > 100 µM (inactive) throughout. The GI50 in the test on A549 is > 100 µM (inactive); in the test on HCT-15, greater than 100 µM; with MDA-MB-435, > 100 µM (inactive); in the test with SN12C, > 100 µM (inactive); with HOP-92, 19.8 µM (inactive); in the test with OVCAR-8, > 100 µM (inactive). Besides, the GI50 in the test with NCI/ADR-RES, in the test with UO-31, with SF-268, in the test on 786-0, in the test on TK-10 and with U-251 was > 100 µM (inactive) throughout.
Consider `CCOC(=O)/C(C(=O)Nc1cccc(Cl)c1)=C(/N)N1CCOCC1`, for which the GI50 with SK-MEL-2, in the test with SK-OV-3, with SNB-75, in the test on A498, in the test with PC-3 and with RPMI-8226 was > 100 µM (inactive) throughout. The GI50 in the test with A549 was > 100 µM (inactive); in the test on HCT-15, greater than 100 µM; in the test on MDA-MB-435 it was > 100 µM (inactive); in the test on SN12C, > 100 µM (inactive); in the test with HCC 2998 it was > 100 µM (inactive); with OVCAR-8 it was > 100 µM (inactive). Besides, the GI50 in the test with NCI/ADR-RES, in the test on SF-268, with 786-0, in the test with TK-10 and with U-251 was > 100 µM (inactive) throughout.
As to `COc1cc2cc(C(=O)N3CC(COS(C)(=O)=O)c4c3cc([N+](=O)[O-])c3ccccc43)[nH]c2c(OC)c1OC` (stereo not given), the GI50 was 7.71 µM (inactive) in the test with SK-MEL-2; 61.9 µM (inactive) in the test on SK-OV-3; > 24 µM (inactive) with SNB-75; 10.7 µM (inactive) in the test on A498; 22.9 µM (inactive) in the test on PC-3; 2.92 µM (inactive) with RPMI-8226. Moreover, the GI50 in the test on A549 was 2.81 µM (inactive); in the test on HCT-15 it was greater than 31.6 µM; in the test with MDA-MB-435, > 31.6 µM (inactive); with SN12C it was 5.83 µM (inactive); with HCC 2998, 0.291 µM (active); with HOP-92, > 31.6 µM (inactive). Further, the GI50 with OVCAR-8 was 2.15 µM (inactive); with NCI/ADR-RES, 0.698 µM (active); with UO-31 it was 2.56 µM (inactive); in the test with SF-268, 10.5 µM (inactive); in the test on 786-0 it was 0.752 µM (active); in the test with TK-10, > 31.6 µM (inactive). The GI50 in the test with U-251 was > 31.6 µM (inactive).

The values are drawn from ChEMBL document CHEMBL1201862, “PubChem BioAssay data set” (2004).
